In patent US20160011208A1, “ASSAY FOR POLYPEPTIDE AGGREGATION USING MICRODROPLETS” (priority 2013, published 2016):

Target: T1, Aβ1-42 (Homo sapiens, UniProt P05067)
T1 construct: Scyllo-inositol and amyloid monomers (Aβ1-42) were compartmentalised in droplets
Assay: Inhibition of Aβ1-42 aggregation in microdroplet gel beads, flow cytometric analysis
Type: biochemical
Settings: HF488Aβ1-42 with scyllo-inositol in droplets, amyloid:inhibitor ratios 1:1 or 1:20, versus control without inhibitor; flow cytometry (FIG. 12)
Method: FIG. 12: Inhibition of aggregation by scyllo-inositol. Scyllo-inositol and amyloid monomers (Aβ1-42) were compartmentalised in droplets and incubated at ratios of amyloid:inhibitor of 1:1 (central bar at each time point) or 1:20 (right-hand bar at each time point), respectively. The left-hand bar at each time point represents a control with no scyllo-inositol.
A microfluidic droplet generator with a flow focusing geometry was used to generate water-in-oil droplets. The contents of the droplets were determined by the content of the supply stream: peptide buffer solution was mixed with agarose gel solution and trapped by HFE7500 oil containing a surfactant, e.g. 0.5% (w/w) fluorous tri-block copolymers. […]
Since the processed gel beads were stored in aqueous buffer solution, they could be tested via flow cytometry or FACS, a technique requiring aqueous carrier fluid, in order to assess the aggregation process and compare different intensity of aggregates inside agarose beads. Incubated and washed agarose beads with Hilyte488-labelled Aβ1-40 aggregates were sent to FACS and the beads with fluorescent aggregates were counted. […] The percentage of beads containing aggregates was calculated using the program Summit. […]

T1 sequence (P05067 672-713 limits assumed): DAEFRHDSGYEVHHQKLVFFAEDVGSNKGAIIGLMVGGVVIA

Structure (SMILES): O[C@H]1[C@H](O)[C@@H](O)[C@H](O)[C@@H](O)[C@@H]1O [scyllo-inositol]
- inhibition of aggregation of Aβ1-42 monomers in gel beads: inhibition of aggregation by scyllo-inositol was detected
